Consider two compounds from BindingDB's records for patent US10221174 (University of Michigan, 2019).

The assay has as its target Isoform Bcl-X(L) of Bcl-2-like protein 1 (Bcl-xL) (Homo sapiens, UniProt Q07817).

Chain of Isoform Bcl-X(L) of Bcl-2-like protein 1 (Bcl-xL) (Q07817 whole entry G70A, canonical isoform): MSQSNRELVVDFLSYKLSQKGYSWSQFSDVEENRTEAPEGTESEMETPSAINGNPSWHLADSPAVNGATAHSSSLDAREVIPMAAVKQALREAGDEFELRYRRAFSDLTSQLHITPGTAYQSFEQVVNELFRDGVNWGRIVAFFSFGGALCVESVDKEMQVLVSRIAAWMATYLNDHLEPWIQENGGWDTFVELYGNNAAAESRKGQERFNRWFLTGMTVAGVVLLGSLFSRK

Consider `O=C(NS(=O)(=O)c1cc([N+](=O)[O-])c2cnn(CC3CCOCC3)c2c1)c1ccc(N2CCN(CC3=C(c4ccc(Cl)cc4)CC4(CCC4)CC3)CC2)cc1Oc1cnc2[nH]ccc2c1` [US10221174, Compound 62], for which the concentration for half-maximal inhibition (IC50) (usually the point on the concentration scale where inhibition reaches its midpoint) stood at 4 nM.

The compound `O=C(NS(=O)(=O)c1cc([N+](=O)[O-])c2cnn(C3CCOCC3)c2c1)c1ccc(N2CCN(CC3=C(c4ccc(Cl)cc4)CC4(CCC4)CC3)CC2)cc1Oc1cnc2[nH]ccc2c1` [US10221174, Compound 64] displayed an IC50 of 8.7 nM.
